Reference: ChEMBL document CHEMBL3271966, “beta-Adrenergic blocking agents. 17. 1-Phenoxy-3-phenoxyalkylamino-2-propanols and 1-alkoxyalkylamino-3-phenoxy-2-propanols” (J Med Chem, 1977)
Active and inactive are the calls of the source. The rule behind the calls is not given here.

Key:
Felis catus [1] = assay: Inhibition of isoproterenol-induced tachycardia in anesthetized cat compound administered as an infusion over a period of 30 mins; type: functional
Felis catus [2] = assay: Inhibition of isoproterenol-induced vasodepressor response in anesthetized cat compound administered as an infusion over a period of 30 mins; type: organism-based; details: in vivo, iv, 0.5 h; also: test concentration or dose not given here

Row | Compound | inhibition (INH) (Felis catus [2]) | ED50 (Felis catus [1]; 0.5 h) | ED50 (Felis catus [1])
1 | COCCNCC(O)COc1ccc(O)cc1 (configuration not stated) | 0% | 0.118 mg/kg | 
2 | CC(C)OCCNCC(O)COc1ccccc1[N+](=O)[O-].O=C(O)C(=O)O (configuration not stated) | 0% | 0.195 mg/kg | 
3 | COc1ccccc1OCC(O)CNCCOc1ccccc1.O=C(O)C(=O)O (configuration not stated) | 0% | 0.527 mg/kg | 
4 | OC(CNCCOc1cccc(Cl)c1)COc1ccccc1 (configuration not stated) | 36% | 0.375 mg/kg | 
5 | OC(CNCCOc1ccccc1F)COc1ccccc1 (configuration not stated) | 0% | 0.081 mg/kg | 
6 | COCCNCC(O)COc1ccc(Cl)cc1 (configuration not stated) |  |  | inactive
7 | Cc1ccccc1OCC(O)CNCCOc1ccccc1.Cl (configuration not stated) | 12% | 0.284 mg/kg | 
8 | Cc1ccc(OCC(O)CNCCOc2ccccc2)cc1 (configuration not stated) |  |  | inactive
9 | OC(CNCCOc1ccccc1)COc1ccc(OCc2ccccc2)cc1 (configuration not stated) |  |  | inactive
10 | COc1ccccc1OCCNCC(O)COc1ccccc1OC.O=C(O)C(=O)O (configuration not stated) | 60% | 0.539 mg/kg | 
11 | O=C(O)C(=O)O.OC(CNCCOc1c(Cl)cccc1Cl)COc1ccccc1 (configuration not stated) | 11% | 0.402 mg/kg | 
12 | COc1ccc(OCCNCC(O)COc2ccccc2)cc1 (configuration not stated) | 0% | 0.064 mg/kg | 
13 | COc1ccccc1OC(C)CNCC(O)COc1ccccc1.O=C(O)C(=O)O (configuration not stated) | 0% | 0.014 mg/kg | 
14 | COCCNCC(O)COc1cccc2ccccc12 (configuration not stated) |  |  | inactive
15 | COc1cccc(OC)c1OCCNCC(O)COc1ccccc1.O=C(O)C(=O)O (configuration not stated) | 0% | 2.26 mg/kg | 
16 | CCCc1ccccc1OCCNCC(O)COc1ccccc1.O=C(O)C(=O)O (configuration not stated) | 0% | 0.833 mg/kg | 
17 | CCOCCNCC(O)COc1ccccc1 (configuration not stated) | 10% | 0.047 mg/kg | 
18 | COc1ccccc1OCCCNCC(O)COc1ccccc1.O=C(O)C(=O)O (configuration not stated) | 15% | 0.721 mg/kg | 
19 | C=CCc1ccccc1OCCNCC(O)COc1ccccc1.O=C(O)C(=O)O (configuration not stated) | 33% | 0.75 mg/kg | 
20 | CC(CNCC(O)COc1ccccc1)Oc1ccccc1 (configuration not stated) | 0% | 0.051 mg/kg | 
21 | OC(CNCCOc1ccc(Cl)cc1)COc1ccccc1 (configuration not stated) | 0% | 0.08 mg/kg | 
22 | Cc1cccc(OCCNCC(O)COc2ccccc2)c1.Cl (configuration not stated) | 29% | 0.116 mg/kg | 

Further lines, with some results ahead:

Row | inhibition (INH) (Felis catus [2]) | Compound | ED50 (Felis catus [1]; 0.5 h) | ED50 (Felis catus [1])
23 | 79% | Cc1cccc(Cl)c1OCCNCC(O)COc1ccccc1.O=C(O)C(=O)O (configuration not stated) | 0.09 mg/kg | 
24 | 29% | COCCNCC(O)COc1ccccc1[N+](=O)[O-] (configuration not stated) | 0.293 mg/kg | 
25 | 58% | OC(CNCCOc1ccc(F)cc1)COc1ccccc1 (configuration not stated) | 0.029 mg/kg | 
26 | 0% | OC(CNCCOc1ccc(OCc2ccccc2)cc1)COc1ccccc1 (configuration not stated) | 0.534 mg/kg | 
27 | 0% | Cc1ccccc1OCCNCC(O)COc1ccccc1 (configuration not stated) | 0.031 mg/kg | 
28 | 81% | Cc1ccccc1OCC(O)CNCCOc1ccc(C(N)=O)cc1 (configuration not stated) [TOLAMOLOL] | 0.133 mg/kg | 
29 | 38% | O=C(O)C(=O)O.OC(CNCCOc1ccccc1)COc1ccccc1Cl (configuration not stated) | 1.11 mg/kg | 
30 | 0% | CCOCCCNCC(O)COc1ccccc1 (configuration not stated) | 0.066 mg/kg | 
31 | 0% | COCCNCC(O)COc1ccccc1C#N (configuration not stated) | 0.198 mg/kg | 
32 | 78% | Oc1ccc(OCC(O)CNCCOc2ccccc2)cc1 (configuration not stated) | 0.031 mg/kg | 
33 | 0% | Cl.Oc1ccccc1OCCNCC(O)COc1ccccc1 (configuration not stated) | 0.022 mg/kg | 
34 | 0% | Cc1ccc(OCCNCC(O)COc2ccccc2)cc1 (configuration not stated) | 0.179 mg/kg | 
35 | 71% | O=C(O)C(=O)O.OC(CNCCOc1ccccc1Cl)COc1ccccc1 (configuration not stated) | 0.821 mg/kg | 
36 | 0% | COCCNCC(O)COc1ccccc1 (configuration not stated) | 0.13 mg/kg | 
37 | 33% | Cc1cccc(OCC(O)CNCCOc2ccccc2)c1.Cl (configuration not stated) | 1.76 mg/kg | 
38 | 0% | Cl.OC(CNCCOc1cccc2ccccc12)COc1ccccc1 (configuration not stated) | 0.231 mg/kg | 
39 | 0% | OC(CNCCOc1ccccc1)COc1ccccc1 (configuration not stated) | 0.054 mg/kg | 
40 | 0% | CCOCCCNCC(O)COc1ccccc1[N+](=O)[O-].O=C(O)C(=O)O (configuration not stated) | 0.566 mg/kg | 
41 | 0% | COc1ccccc1OCCNCC(O)COc1ccccc1 (configuration not stated) | 0.063 mg/kg | 
42 | 0% | OC(CNCCOc1ccccc1)COc1ccccc1Br (configuration not stated) | 0.3 mg/kg | 
43 | 0% | Cl.OC(CNCCCOc1ccccc1)COc1ccccc1 (configuration not stated) | 0.239 mg/kg | 
